Earlier results in patent US20120134921A1, “SOLID COMPOSITIONS COMPRISING 5-AMINOLEVULINIC ACID” (Photocure ASA, priority 2009, published 2012).

Legend:
dysplastic lesions = conditions: sterile solution administered as local probe, chronic colitis rat models
[1] = system: pre-malignant conditions in the colon; conditions: enemas, 5-ALA hexyl ester in sterile phosphate buffered saline

CCCCCCOC(=O)CCC(=O)CN [5-ALA hexyl ester, n-hexyl aminolevulinic acid ester]
Sensitivity of detection of dysplastic lesions by fluorescence (dysplastic lesions): 60% | Specificity of detection of dysplastic lesions by fluorescence (dysplastic lesions): 51% | More polyps detected by PDD than with white light endoscopic imaging [1]: 28%
